{"source": "patent US10766884B2", "about": "(Pfizer Inc., priority 2018, dated 2020)", "key": {"[1]": {"target": "CDK4 (Homo sapiens (Human), UniProt P11802)", "sequence (P11802 2-303)": "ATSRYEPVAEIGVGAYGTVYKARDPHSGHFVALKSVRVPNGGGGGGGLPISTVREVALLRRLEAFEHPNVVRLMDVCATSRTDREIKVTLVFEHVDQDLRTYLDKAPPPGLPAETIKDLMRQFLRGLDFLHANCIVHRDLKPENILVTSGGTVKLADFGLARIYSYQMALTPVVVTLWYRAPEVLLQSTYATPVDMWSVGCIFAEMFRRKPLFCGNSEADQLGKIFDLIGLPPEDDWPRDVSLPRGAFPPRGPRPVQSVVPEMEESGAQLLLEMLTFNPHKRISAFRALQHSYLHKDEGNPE", "sequence (P24385 whole entry partner)": "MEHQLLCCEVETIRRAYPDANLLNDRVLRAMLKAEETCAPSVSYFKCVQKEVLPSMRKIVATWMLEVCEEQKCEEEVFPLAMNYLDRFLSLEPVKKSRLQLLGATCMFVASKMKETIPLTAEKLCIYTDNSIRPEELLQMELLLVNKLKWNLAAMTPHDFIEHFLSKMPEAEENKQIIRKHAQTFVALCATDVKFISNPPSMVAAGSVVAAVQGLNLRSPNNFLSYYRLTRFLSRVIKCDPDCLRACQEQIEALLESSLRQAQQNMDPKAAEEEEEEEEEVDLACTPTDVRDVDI", "assay": "Phospho-Serine 795 Rb ELISA assay in JEKO-1 cells", "assay_type": "cell-based", "settings": "overnight treatment, phospho-Rb S795, read-out: CDK4 pRB S795 ELISA JEKO-1 cells IC50"}, "[2]": {"target": "CDK4/Cyclin D1 (Homo sapiens (Human), UniProt P11802)", "sequence (P11802 whole entry)": "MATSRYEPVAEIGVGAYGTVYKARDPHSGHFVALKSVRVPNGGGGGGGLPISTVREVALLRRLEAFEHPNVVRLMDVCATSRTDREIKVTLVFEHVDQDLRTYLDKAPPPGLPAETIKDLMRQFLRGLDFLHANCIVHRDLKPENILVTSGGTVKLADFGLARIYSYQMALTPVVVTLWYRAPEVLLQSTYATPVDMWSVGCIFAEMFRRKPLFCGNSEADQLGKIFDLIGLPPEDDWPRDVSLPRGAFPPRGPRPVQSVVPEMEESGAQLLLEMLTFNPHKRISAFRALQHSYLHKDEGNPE", "sequence (P24385 whole entry partner)": "as the sequence (P24385 whole entry partner) above", "assay": "CDK4/Cyclin D1 mobility shift assay", "assay_type": "biochemical", "settings": "activated CDK4/Cyclin D1, 3.5 mM ATP, Morrison fit; read-out: CDK4D1 Ki"}, "[3]": {"target": "CDK6 (Homo sapiens (Human), UniProt Q00534)", "sequence (Q00534 whole entry)": "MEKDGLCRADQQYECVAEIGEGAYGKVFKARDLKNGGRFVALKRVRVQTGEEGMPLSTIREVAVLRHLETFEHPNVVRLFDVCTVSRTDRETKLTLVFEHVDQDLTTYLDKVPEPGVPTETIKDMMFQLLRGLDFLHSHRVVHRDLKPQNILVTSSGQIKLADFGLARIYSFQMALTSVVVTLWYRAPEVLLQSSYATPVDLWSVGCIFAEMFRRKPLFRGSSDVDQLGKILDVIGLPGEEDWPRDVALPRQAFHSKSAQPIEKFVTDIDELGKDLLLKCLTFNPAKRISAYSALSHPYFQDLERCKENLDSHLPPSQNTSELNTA", "sequence (P30281 whole entry partner)": "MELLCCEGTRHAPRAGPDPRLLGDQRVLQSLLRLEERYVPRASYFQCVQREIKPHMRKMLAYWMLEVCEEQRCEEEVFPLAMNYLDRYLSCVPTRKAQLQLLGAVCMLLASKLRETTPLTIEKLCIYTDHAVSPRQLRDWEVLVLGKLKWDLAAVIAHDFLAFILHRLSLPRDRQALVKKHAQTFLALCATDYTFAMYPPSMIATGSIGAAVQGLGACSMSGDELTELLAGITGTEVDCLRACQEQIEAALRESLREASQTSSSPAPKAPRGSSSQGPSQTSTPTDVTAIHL", "assay": "Phospho-Serine 795 Rb ELISA assay in MV4-11 cells", "assay_type": "cell-based", "settings": "overnight treatment, phospho-Rb S795, read-out: CDK6 pRB S795 ELISA MV4-11 cells IC50"}, "[4]": {"target": "CDK6/Cyclin D3 (Homo sapiens (Human), UniProt Q00534)", "sequence (Q00534 whole entry)": "as the sequence (Q00534 whole entry) above", "sequence (P30281 whole entry partner)": "as the sequence (P30281 whole entry partner) above", "assay": "CDK6/Cyclin D3 mobility shift assay", "assay_type": "biochemical", "settings": "activated CDK6/Cyclin D3, 3.5 mM ATP, Morrison fit; read-out: CDK6_D3 Ki"}}}
{"molecule": "CNC(=O)CN1CC[C@@H](Nc2cc(-c3ccc4ncn(C(C)(C)C)c4n3)c(Cl)cn2)[C@H](O)C1", "note": "[Example F33, 2-[(3R,4R)-4-{[4-(3-tert-butyl-3H-imidazo[4,5-b]pyridin-5-yl)-5-chloropyridin-2-yl]amino}-3-hydroxypiperidin-1-yl]-N-methylacetamide]", "values": [{"measurement": "IC50", "setting": "[1]", "value": 24.6, "unit": "nM"}, {"measurement": "Ki", "setting": "[2]", "value": 0.2, "unit": "nM"}, {"measurement": "IC50", "setting": "[3]", "value": 113, "unit": "nM"}, {"measurement": "Ki", "setting": "[4]", "value": 5.2, "unit": "nM"}]}
{"molecule": "CC(C)n1c(CN2CC(C)(O)C2)nc2c(F)cc(-c3nc(N[C@@H]4CCOC[C@H]4O)ncc3Cl)cc21", "note": "[Example H01, 1,5-anhydro-3-[(5-chloro-4-{4-fluoro-2-[(3-hydroxy-3-methylazetidin-1-yl)methyl]-1-(propan-2-yl)-1H-benzimidazol-6-yl}pyrimidin-2-yl)amino]-2,3-dideoxy-D-threo-pentitol]", "values": [{"measurement": "IC50", "setting": "[1]", "value": 137, "unit": "nM"}, {"measurement": "Ki", "setting": "[2]", "value": 2.4, "unit": "nM"}, {"measurement": "IC50", "setting": "[3]", "value": 858, "unit": "nM"}, {"measurement": "Ki", "setting": "[4]", "value": 127, "unit": "nM"}]}
{"molecule": "CC(C)n1c(CN(C)C)nc2c(F)cc(-c3nc(N[C@@H]4CCOC[C@H]4O)ncc3Cl)cc21", "note": "[Example H02, 1,5-anhydro-3-[(5-chloro-4-{2-[(dimethylamino)methyl]-4-fluoro-1-(propan-2-yl)-1H-benzimidazol-6-yl}pyrimidin-2-yl)amino]-2,3-dideoxy-D-threo-pentitol]", "values": [{"measurement": "IC50", "setting": "[1]", "value": 52.1, "unit": "nM"}, {"measurement": "Ki", "setting": "[2]", "value": 0.8, "unit": "nM"}, {"measurement": "IC50", "setting": "[3]", "value": 118, "unit": "nM"}, {"measurement": "Ki", "setting": "[4]", "value": 20, "unit": "nM"}]}
{"molecule": "CC(C)n1c(CN2CC(O)C2)nc2c(F)cc(-c3nc(N[C@@H]4CCOC[C@H]4O)ncc3Cl)cc21", "note": "[Example H03, 1,5-anhydro-3-[(5-chloro-4-{4-fluoro-2-[(3-hydroxyazetidin-1-yl)methyl]-1-(propan-2-yl)-1H-benzimidazol-6-yl}pyrimidin-2-yl)amino]-2,3-dideoxy-D-threo-pentitol]", "values": [{"measurement": "IC50", "setting": "[1]", "value": 155, "unit": "nM"}, {"measurement": "Ki", "setting": "[2]", "value": 1.8, "unit": "nM"}, {"measurement": "IC50", "setting": "[3]", "value": 423, "unit": "nM"}, {"measurement": "Ki", "setting": "[4]", "value": 66.9, "unit": "nM"}]}
{"molecule": "CC(C)n1c(CN2C[C@@](C)(O)[C@@H]2C)nc2c(F)cc(-c3nc(N[C@@H]4CCOC[C@H]4O)ncc3Cl)cc21", "note": "[Example H04, 1,5-anhydro-3-({5-chloro-4-[4-fluoro-2-{[(2S,3R)-3-hydroxy-2,3-dimethylazetidin-1-yl]methyl}-1-(propan-2-yl)-1H-benzimidazol-6-yl]pyrimidin-2-yl}amino)-2,3-dideoxy-D-threo-pentitol]", "values": [{"measurement": "IC50", "setting": "[1]", "value": 63.4, "unit": "nM"}, {"measurement": "Ki", "setting": "[2]", "value": 0.8, "unit": "nM"}, {"measurement": "IC50", "setting": "[3]", "value": 221, "unit": "nM"}, {"measurement": "Ki", "setting": "[4]", "value": 38.2, "unit": "nM"}]}
{"molecule": "CC(C)n1c(CNC2COC2)nc2c(F)cc(-c3nc(N[C@@H]4CCOC[C@H]4O)ncc3Cl)cc21", "note": "[Example H05, 1,5-anhydro-3-({5-chloro-4-[4-fluoro-2-{[(oxetan-3-yl)amino]methyl}-1-(propan-2-yl)-1H-benzimidazol-6-yl]pyrimidin-2-yl}amino)-2,3-dideoxy-D-threo-pentitol]", "values": [{"measurement": "IC50", "setting": "[1]", "value": 249, "unit": "nM"}, {"measurement": "Ki", "setting": "[2]", "value": 4.5, "unit": "nM"}, {"measurement": "IC50", "setting": "[3]", "value": 1470, "unit": "nM"}, {"measurement": "Ki", "setting": "[4]", "value": 93.3, "unit": "nM"}]}
{"molecule": "CC(C)n1c(CN2CC(F)C2)nc2c(F)cc(-c3nc(N[C@@H]4CCOC[C@H]4O)ncc3Cl)cc21", "note": "[Example H06, 1,5-anhydro-3-[(5-chloro-4-{4-fluoro-2-[(3-fluoroazetidin-1-yl)methyl]-1-(propan-2-yl)-1H-benzimidazol-6-yl}pyrimidin-2-yl)amino]-2,3-dideoxy-D-threo-pentitol]", "values": [{"measurement": "IC50", "setting": "[1]", "value": 79.6, "unit": "nM"}, {"measurement": "Ki", "setting": "[2]", "value": 1.1, "unit": "nM"}, {"measurement": "IC50", "setting": "[3]", "value": 343, "unit": "nM"}, {"measurement": "Ki", "setting": "[4]", "value": 35.6, "unit": "nM"}]}
{"molecule": "CC(C)n1c(CN2CCC2)nc2c(F)cc(-c3nc(N[C@@H]4CCOC[C@H]4O)ncc3Cl)cc21", "note": "[Example H07, 1,5-anhydro-3-[(4-{2-[(azetidin-1-yl)methyl]-4-fluoro-1-(propan-2-yl)-1H-benzimidazol-6-yl}-5-chloropyrimidin-2-yl)amino]-2,3-dideoxy-D-threo-pentitol]", "values": [{"measurement": "IC50", "setting": "[1]", "value": 48.3, "unit": "nM"}, {"measurement": "Ki", "setting": "[2]", "value": 1.4, "unit": "nM"}, {"measurement": "IC50", "setting": "[3]", "value": 409, "unit": "nM"}, {"measurement": "Ki", "setting": "[4]", "value": 43, "unit": "nM"}]}
{"molecule": "CC(C)NCc1nc2c(F)cc(-c3nc(N[C@@H]4CCOC[C@H]4O)ncc3Cl)cc2n1C(C)C", "note": "[Example H08, 1,5-anhydro-3-({5-chloro-4-[4-fluoro-1-(propan-2-yl)-2-{[(propan-2-yl)amino]methyl}-1H-benzimidazol-6-yl]pyrimidin-2-yl}amino)-2,3-dideoxy-D-threo-pentitol]", "values": [{"measurement": "IC50", "setting": "[1]", "value": 35.6, "unit": "nM"}, {"measurement": "Ki", "setting": "[2]", "value": 1.2, "unit": "nM"}, {"measurement": "IC50", "setting": "[3]", "value": 306, "unit": "nM"}, {"measurement": "Ki", "setting": "[4]", "value": 44.5, "unit": "nM"}]}
{"molecule": "CC(C)n1c(CNC2COC2)nc2c(F)cc(-c3nc(N[C@@H]4CCN(S(C)(=O)=O)C[C@H]4O)ncc3Cl)cc21", "note": "[Example H09, (3R,4R)-4-({5-chloro-4-[4-fluoro-2-{[(oxetan-3-yl)amino]methyl}-1-(propan-2-yl)-1H-benzimidazol-6-yl]pyrimidin-2-yl}amino)-1-(methanesulfonyl)piperidin-3-ol]", "values": [{"measurement": "IC50", "setting": "[1]", "value": 205, "unit": "nM"}, {"measurement": "Ki", "setting": "[2]", "value": 0.9, "unit": "nM"}, {"measurement": "IC50", "setting": "[3]", "value": 230, "unit": "nM"}, {"measurement": "Ki", "setting": "[4]", "value": 18.6, "unit": "nM"}]}
{"molecule": "CC(C)NCc1nc2c(F)cc(-c3nc(N[C@@H]4CCN(S(C)(=O)=O)C[C@H]4O)ncc3Cl)cc2n1C(C)C", "note": "[Example H10, (3R,4R)-4-({5-chloro-4-[4-fluoro-1-(propan-2-yl)-2-{[(propan-2-yl)amino]methyl}-1H-benzimidazol-6-yl]pyrimidin-2-yl}amino)-1-(methanesulfonyl)piperidin-3-ol]", "values": [{"measurement": "IC50", "setting": "[1]", "value": 14.9, "unit": "nM"}, {"measurement": "Ki", "setting": "[2]", "value": 0.5, "unit": "nM"}, {"measurement": "IC50", "setting": "[3]", "value": 51.1, "unit": "nM"}, {"measurement": "Ki", "setting": "[4]", "value": 16.4, "unit": "nM"}]}
{"molecule": "CC(C)n1c(CNC2CC2)nc2c(F)cc(-c3nc(N[C@@H]4CCOC[C@H]4O)ncc3Cl)cc21", "note": "[Example H11, 1,5-anhydro-3-[(5-chloro-4-{2-[(cyclopropylamino)methyl]-4-fluoro-1-(propan-2-yl)-1H-benzimidazol-6-yl}pyrimidin-2-yl)amino]-2,3-dideoxy-D-threo-pentitol]", "values": [{"measurement": "IC50", "setting": "[1]", "value": 43.4, "unit": "nM"}, {"measurement": "Ki", "setting": "[2]", "value": 0.7, "unit": "nM"}, {"measurement": "IC50", "setting": "[3]", "value": 295, "unit": "nM"}, {"measurement": "Ki", "setting": "[4]", "value": 22.1, "unit": "nM"}]}
